Source: paper PMC4040332 (ChemMedChem, 2013)
Converted amounts (≈) assume the structure as drawn.

What was measured:
[1] = system: GR from B. anthracis (RacE2); type: biochemical; settings: RacE2, Figure 1
[2] = system: GR from F. tularensis (MurI); type: biochemical; settings: Figure 1
B. subtilis DB104 = experiment: Inhibition of bacterial growth; settings: Bacillus subtilis, DB104, 24 h, read-out: MIC50 B. subtilis
GR from B. subtilis = GR from B. subtilis (Bacillus subtilis, UniProt P94556)
Chain of GR from B. subtilis (P94556 whole entry): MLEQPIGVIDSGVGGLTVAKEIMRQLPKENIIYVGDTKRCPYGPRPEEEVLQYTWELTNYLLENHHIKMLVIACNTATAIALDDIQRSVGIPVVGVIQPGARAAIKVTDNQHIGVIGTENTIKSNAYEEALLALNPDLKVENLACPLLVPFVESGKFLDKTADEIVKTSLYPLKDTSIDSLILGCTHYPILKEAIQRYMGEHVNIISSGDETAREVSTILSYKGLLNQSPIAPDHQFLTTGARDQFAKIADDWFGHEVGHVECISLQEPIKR

[3] = system: GR from B. anthracis (RacE1); type: biochemical; settings: RacE1, Figure 1

O=S(=O)(O)c1nc2ccccc2[nH]1 [Compound 2, 1H-benzimidazole-2-sulfonic acid]
potency compared with GR from B. subtilis [1]: equal potency
potency compared with GR from B. subtilis [2]: equal potency
MIC50 (B. subtilis DB104): 720 ± 60 µg/mL (≈ 3.63 mM)
LE (ligand efficiency) (GR from B. subtilis; Ki converted to binding energy, divided by number of non-hydrogen atoms): 0.53 kcal/mol/atom
LiPE (lipophilic efficiency) (GR from B. subtilis; from log(Ki) and logP calculated with MarvinSketch): 5.3
potency compared with GR from B. subtilis [3]: equal potency
